Patent publication US20180073018A1, “COMPOSITIONS AND METHODS FOR SPECIFIC REACTIVATION OF HIV LATENT RESERVOIR” (priority 2015, published 2018)

Tests used:
HIV-1 LTR promoter [1] = assay: HIV-1 EGFP reporter reactivation in latent CHME5 microglial cells; assay type: cell-based; conditions: dCas9-VPH stable CHME5, 500 nM, 4 d
From the text: Cells were infected with pMSCV-LTR-dCas9-VP64-puromycin and Lenti-MS2-p65-HSF1-hygromysin, selected for 10 days. The population cells were infected with Lenti-MS2-gRNAs-Zeosin and the fluorescent micrographs were taken at 1 day after infection (FIG. 5B). Cells were continuously cultured for 7 days, and selected with triple antibiotics (puromycin-hygromycin-Zeocin) for 3 days before flow cytometry (FIG. 5C).
FIG. 9A and FIG. 9B: TZM-bI cells were infected with dCas9-VPH and indicated msgRNA lentiviruses at 1 or 10 MOI and luciferase activity was measured at 2-21 days post-infection (dpi). FIG. 9C, FIG. 9D: indicated HIV-1 EGFP reporter T cell lines were infected with dCas9-VPH and indicated msgRNAs lentiviruses at 10 MOI and flow cytometric analysis for EGFP percentage (FIG. 9C) and individual intensity (FIG. 9D) was performed at 1 dpi. […]
(§1) FIG. 12A, FIG. 12B, FIG. 12C: The dCas9-VPH stable TZM-bI cells were treated with SAHA or infected with indicated msgRNAs lentivirus for 2-4 d before luminescence reporter assay (FIG. 12A) and CELLTITER-GLO® luminescent cell viability assay (FIG. 12B). […]
Cells were trypsinized (for CHME5) or collected (for suspension T cell lines), washed with PBS and fixed in 2% paraformaldehyde for 10 minutes at room temperature. Then, cells were washed twice with PBS and analyzed using a Guava EasyCyte Mini flow cytometer (Guava Technologies). […]

HIV-1 LTR promoter [2] = assay: dCas9-VPH/msgRNA (or SAHA) reactivation of latent LTR-eLuc reporter in TZM-bI cells; assay type: cell-based
Protocol: Cells were plated in 96-well plate and the indicated MS2-gRNAs were cotransfected by Lipofectamine 3000 (FIG. 3A) or coinfected by lentiviruses (FIG. 3B, MOI=50) with pMSCV-LTR-dCas9-VP64-BFP plus pLV-MS2-p65-HSF1-GFP. Two days later, OneGlo luminescence assay was performed. The SIV MS2-gRNA-D was used as negative control. […] The gRNA-J has no effect due to 2 nucleotides mismatch to the LTR sequence from TZM-bI cells.
FIG. 8A, FIG. 8B, FIG. 8C, and FIG. 8D, depict the results of experiments of screening of MS2-mediated sgRNAs (msgRNAs) targeting the HIV-1 long terminal repeat (LTR) in the dCas9-synergistic activation mediator (SAM) system. FIG. 8A is a schematic illustration of SAM-VPH complex derived from dCas9-VP64 (V) and MS2-p65-HSF1 (PH) with msgRNAs. FIG. 8B is a graph showing similar activation of transfected EcoHIV-eLuc reporter by inducible (TRE) or constitutive (LTR) dCas9-VP64 expression in HEK293T cells. FIG. 8C is a graph showing similar reactivation of latent HIV-LTR-eLuc reporter in TZM-bI cells after either transient plasmid transfection by Lipofectamine 3000 or stable infection by lentivirus. […] The gRNA-J has no effect due to 2 nucleotides mismatch to the LTR sequence from TZM-bI cells. […]
FIG. 9A and FIG. 9B: TZM-bI cells were infected with dCas9-VPH and indicated msgRNA lentiviruses at 1 or 10 MOI and luciferase activity was measured at 2-21 days post-infection (dpi). […]
as §1
Experiments were conducted to compare reactivation of HIV-LTR luciferase reporter in TZM-BI cells induced by gRNA/dCas9-VP64/MS2-p65-HSF1/delivered by either transient plasmid transfection (FIG. 3A) or stable lentivirus infection (FIG. 3B). […] Two days later, OneGlo luminescence assay was performed. […]

O=C(CCCCCCC(=O)Nc1ccccc1)NO [SAHA, suberoylanilide hydroxamic acid]
HIV-1 provirus reactivation (EGFP) (HIV-1 LTR promoter [1]): marginal increase
activation of LTR-eLuc reporter (HIV-1 LTR promoter [2]; TZM-bI, 500 nM): did not activate
reactivation of LTR-eLuc reporter (HIV-1 LTR promoter [2]; TZM-bI, 5,000 nM): 4 fold
